Tests used:
[1] = system: hypertensive patients; assay: Clinical response to 8 weeks of drug therapy, patients categorized as responders or non-responders; assay type: in vivo, human; settings: 8 weeks therapy; for patients who demonstrate a clinical response (responders): BP reduced by 10 mm/Hg systole and/or 6 mm/Hg diastole or more
Text: • a. Hypertension diagnosed by a Cardiologist. The method used to diagnose hypertension is based on the ICE-9 and ICD-10 classification system, and concurs with the diagnostic hypertension criteria outlined by the American Heart Association and includes the following measures: Blood pressure greater than 140 systolic and 90 diastolic (adult person). For this study, individuals will be recruited primarily with moderate to severe hypertension. • b. Patients with hypertension with a severity level that is judged to be appropriate to treatment with Ramace™ were recruited to participate in the study. Study patients signed a consent and donate a blood sample for the study. • c. Phenotype was confirmed by measurement of blood pressure levels at different time points. • d. Age 12-80 years. • e. Both males and females were recruited. • f. White Caucasian (Icelandic hypertensive patient population). • g. Ramace™ therapy for 8 weeks. Examination by a study cardiologist every 3 weeks who confirmed clinical response to Ramace™ therapy. • h. Response to Ramace™: Patients were categorized as either Ramace™ responders or Ramace™ non-responders. […] The same cardiologists examined all 57 patients before and after Ramace™ trial.
All patients recruited were treated with therapeutic doses of Ramace™ for minimum of 8 weeks and examined by the study cardiologist before and after starting the drug. Blood samples were drawn at a similar time (e.g., around 9 AM) in the morning from all patients. The dose of the ACE inhibitor was recorded for all patients, before and 4 weeks after the patient was started on the study drug. No diet restrictions are implemented.
(§1) • a. Hypertension diagnosed by a Cardiologist. The method used to diagnose hypertension is based on the ICE-9 and ICD-10 classification system, and concurs with the diagnostic hypertension criteria outlined by the American Heart Association and includes the following measures: Blood pressure greater than 140 systolic and 90 diastolic (adult person). For this study, individuals will be recruited primarily with moderate to severe hypertension. • b. Patients with hypertension with a severity level that is judged to be appropriate to treatment with Norvasc™ were recruited to participate in the study. Study patients signed a consent and donate a blood sample for the study. • c. Phenotype was confirmed by measurement of blood pressure levels at different time points. • d. Age 12-80 years. • e. Both males and females were recruited. • f. White Caucasian (Icelandic hypertensive patient population). • g. […] Response to Norvasc™: Patients were categorized as either Norvasc™ responders or Norvasc™ non-responders.
Blood samples were drawn at a similar time (e.g., around 9 AM) in the morning from all patients. The dose was recorded for all patients. No diet restrictions were implemented.
as §1, with “Cozaar™” for “Norvasc™”, “Cozaar™:” for “Norvasc™:”

[2] = system: patients with chronic stable angina; settings: placebo 4.4%, P=NS; cited from earlier work
[3] = biological target: T1, AT1 receptor (Homo sapiens, UniProt P30556); settings: cited from earlier work
T1 sequence (P30556 1-359): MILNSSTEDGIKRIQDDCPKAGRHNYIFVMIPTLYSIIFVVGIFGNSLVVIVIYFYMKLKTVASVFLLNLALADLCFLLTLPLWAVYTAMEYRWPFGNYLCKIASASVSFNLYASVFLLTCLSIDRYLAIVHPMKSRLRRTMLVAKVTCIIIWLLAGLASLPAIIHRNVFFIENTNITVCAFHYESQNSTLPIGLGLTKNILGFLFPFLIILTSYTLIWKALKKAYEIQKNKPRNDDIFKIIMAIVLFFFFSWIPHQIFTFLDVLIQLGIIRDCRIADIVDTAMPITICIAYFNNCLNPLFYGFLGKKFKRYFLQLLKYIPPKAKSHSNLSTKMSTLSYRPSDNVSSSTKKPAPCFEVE

[4] = biological target: ACE (Homo sapiens, UniProt P12821); settings: cited from earlier work
[5] = in vivo; cited from earlier work
[6] = system: patients with low renin hypertension; settings: cited from earlier work

ACE, sequence (P12821 30-1306, species assumed): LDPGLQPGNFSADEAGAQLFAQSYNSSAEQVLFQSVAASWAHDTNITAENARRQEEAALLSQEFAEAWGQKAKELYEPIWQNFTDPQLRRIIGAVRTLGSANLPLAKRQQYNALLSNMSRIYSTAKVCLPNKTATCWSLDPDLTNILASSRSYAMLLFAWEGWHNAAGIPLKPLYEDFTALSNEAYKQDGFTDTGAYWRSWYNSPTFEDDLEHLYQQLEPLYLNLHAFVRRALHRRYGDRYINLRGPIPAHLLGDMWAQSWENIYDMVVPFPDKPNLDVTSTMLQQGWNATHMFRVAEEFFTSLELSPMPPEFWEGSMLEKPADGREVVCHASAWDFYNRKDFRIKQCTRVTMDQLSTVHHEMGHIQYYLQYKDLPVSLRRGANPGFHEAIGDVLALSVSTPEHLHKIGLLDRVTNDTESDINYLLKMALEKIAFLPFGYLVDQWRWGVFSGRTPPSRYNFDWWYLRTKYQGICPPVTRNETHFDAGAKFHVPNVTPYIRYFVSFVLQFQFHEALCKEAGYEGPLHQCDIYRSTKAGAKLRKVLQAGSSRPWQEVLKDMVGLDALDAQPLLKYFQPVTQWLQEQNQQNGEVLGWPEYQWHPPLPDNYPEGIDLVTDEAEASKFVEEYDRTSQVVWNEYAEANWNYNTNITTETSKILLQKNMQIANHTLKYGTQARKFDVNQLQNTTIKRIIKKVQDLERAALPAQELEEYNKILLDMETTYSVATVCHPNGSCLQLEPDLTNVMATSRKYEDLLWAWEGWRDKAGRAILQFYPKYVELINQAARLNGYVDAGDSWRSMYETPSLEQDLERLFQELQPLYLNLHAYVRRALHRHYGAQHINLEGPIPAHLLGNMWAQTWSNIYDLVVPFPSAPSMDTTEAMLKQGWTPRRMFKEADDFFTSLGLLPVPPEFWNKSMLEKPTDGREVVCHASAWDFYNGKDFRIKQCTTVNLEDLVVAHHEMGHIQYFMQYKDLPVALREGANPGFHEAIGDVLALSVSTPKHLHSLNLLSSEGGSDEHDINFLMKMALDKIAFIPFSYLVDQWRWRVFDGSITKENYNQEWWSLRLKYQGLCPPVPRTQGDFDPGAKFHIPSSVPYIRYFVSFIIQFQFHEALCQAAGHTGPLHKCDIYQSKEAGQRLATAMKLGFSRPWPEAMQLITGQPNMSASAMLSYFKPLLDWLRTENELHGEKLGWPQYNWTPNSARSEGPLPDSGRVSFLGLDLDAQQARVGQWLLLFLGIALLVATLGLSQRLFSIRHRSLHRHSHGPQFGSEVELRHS

| Structure (SMILES) | non-responders ([1]; of 65 hypertensive patients) [patients] | patients who demonstrate a clinical response (responders) ([1]; of 65 hypertensive patients) [patients] | patients who discontinued therapy due to adverse events [2] [%] | partial agonist activity at the AT1 receptor [3] | inhibition of ACE [4] | time to mean peak serum concentration [5] | non-responders ([1]; of 57 hypertensive patients) [patients] | patients who demonstrate a clinical response (responders) ([1]; of 57 hypertensive patients) [patients] | anti-hypertensive effect [6] |
| --- | --- | --- | --- | --- | --- | --- | --- | --- | --- |
| CCOC(=O)C1=C(COCCN)NC(C)=C(C(=O)OC)C1c1ccccc1Cl (centres unmarked) [Norvasc, amlodipine] | 19 | 46 | 2 | – | – | – | – | – | – |
| CCCCc1nc(Cl)c(CO)n1Cc1ccc(-c2ccccc2-c2nn[nH]n2)cc1 [Cozaar, Losartan potassium] | 18 | 47 | – | do not exhibit any partial agonist activity | Neither losartan nor its active metabolite inhibits ACE | one | – | – | – |
| CCOC(=O)[C@H](CCc1ccccc1)N[C@@H](C)C(=O)N1[C@H](C(=O)O)C[C@@H]2CCC[C@@H]21 [Ramace, ramipril] | – | – | – | – | – | – | 22 | 35 | anti-hypertensive |

From patent US20050032096A1, “Methods for predicting drug sensitivity in patients afflicted with hypertension” (deCODE genetics ehf., priority 2003, published 2005)
